The record followed here is ChEMBL document CHEMBL3808371, “Design, synthesis and biological evaluation of diaziridinyl quinone isoxazole hybrids” (Eur J Med Chem, 2016).

The nature of assay [1]: Cytotoxicity against human PC3 cells after 72 hrs by XTT assay. It counts as functional, cell-based. The settings on record: PC-3, 72 h.
Assay [2] has as its system Pseudomonas aeruginosa. Put plainly: Antimicrobial activity against Pseudomonas aeruginosa MTCC 2453 after 24 hrs by well diffusion method. The following applies: MTCC 2453, 24 h. It counts as functional.
The test system of assay [3] is Raoultella planticola. Put plainly: Antimicrobial activity against Klebsiella planticola MTCC 530 after 24 hrs by well diffusion method. It counts as functional. The following applies: MTCC 530, 24 h.
Assay [4] deals with Staphylococcus aureus. Description: Bactericidal activity against Staphylococcus aureus MTCC 96 after 24 hrs by serial dilution method. Format: functional. The following applies: MTCC 96, 24 h.
Assay [5] concerns Bacillus subtilis. Description: Antimicrobial activity against Bacillus subtilis MTCC 121 after 24 hrs by well diffusion method. Format: functional. The settings on record: MTCC 121, 24 h.
In assay [6] the test system is Micrococcus luteus. Description: Bactericidal activity against Micrococcus luteus MTCC 2470 after 24 hrs by serial dilution method. Format: functional. The following applies: MTCC 2470, 24 h.
Assay [7] relates to Staphylococcus aureus. Put plainly: Antimicrobial activity against Staphylococcus aureus MLS16 MTCC 2940 after 24 hrs by well diffusion method. Format: functional. The following applies: MLS16 MTCC 2940, 24 h.
Assay [8] has as its system Staphylococcus aureus. Description: Antimicrobial activity against Staphylococcus aureus MTCC 96 after 24 hrs by well diffusion method. Format: functional. The settings on record: MTCC 96, 24 h.
The test system of assay [9] is Raoultella planticola. Description: Bactericidal activity against Klebsiella planticola MTCC 530 after 24 hrs by serial dilution method. It counts as functional. The following applies: MTCC 530, 24 h.
In assay [10] the test system is Bacillus subtilis. Put plainly: Bactericidal activity against Bacillus subtilis MTCC 121 after 24 hrs by serial dilution method. Format: functional. The settings on record: MTCC 121, 24 h.
Assay [11] has as its system Staphylococcus aureus. Description: Bactericidal activity against Staphylococcus aureus MLS16 MTCC 2940 after 24 hrs by serial dilution method. The following applies: MLS16 MTCC 2940, 24 h. It counts as functional.
The subject of assay [12] is Candida albicans. Description: Antimicrobial activity against Candida albicans MTCC 3017 after 24 hrs by well diffusion method. It counts as functional. The settings on record: MTCC 3017, 24 h.
Assay [13] has as its system Micrococcus luteus. Put plainly: Antimicrobial activity against Micrococcus luteus MTCC 2470 after 24 hrs by well diffusion method. It counts as functional. The following applies: MTCC 2470, 24 h.
In assay [14] the test system is A549. Put plainly: Cytotoxicity against human A549 cells after 72 hrs by XTT assay. The settings on record: A549, 72 h. It counts as functional, cell-based.
Assay [15] deals with A549. Description: Selectivity ratio of IC50 for human A549 cells to IC50 for human PC3 cells. It counts as functional.
Assay [16] has as its system Escherichia coli. Put plainly: Antimicrobial activity against Escherichia coli MTCC 739 after 24 hrs by well diffusion method. It counts as functional. The settings on record: MTCC 739, 24 h.
Assay [17] has as its system Staphylococcus aureus. Description: Antibiofilm activity against Staphylococcus aureus MTCC 96 after 24 hrs by crystal violet staining based assay. Format: functional, organism-based. The following applies: MTCC 96, 24 h.
For assay [18], the system named is Staphylococcus aureus. Put plainly: Antibiofilm activity against Staphylococcus aureus MLS16 MTCC 2940 after 24 hrs by crystal violet staining based assay. Format: functional, organism-based. The settings on record: MLS16 MTCC 2940, 24 h.
In assay [19] the test system is A549. Put plainly: Cytotoxicity against human A549 cells. It counts as functional, cell-based.
A short description of assay [20]: Cytotoxicity against human PC3 cells. The settings on record: PC-3. It counts as functional, cell-based.
In assay [21] the test system is Raoultella planticola. Description: Antibiofilm activity against Klebsiella planticola MTCC 530 after 24 hrs by crystal violet staining based assay. Format: functional, organism-based. The settings on record: MTCC 530, 24 h.
In assay [22] the test system is Micrococcus luteus. Put plainly: Antibiofilm activity against Micrococcus luteus MTCC 2470 after 24 hrs by crystal violet staining based assay. It counts as functional, organism-based. The following applies: MTCC 2470, 24 h.
Assay [23] deals with Bacillus subtilis. Put plainly: Antibiofilm activity against Bacillus subtilis MTCC 121 after 24 hrs by crystal violet staining based assay. It counts as functional, organism-based. The settings on record: MTCC 121, 24 h.

≈ marks a conversion by molar mass, not a printed value.

`CN(Cc1ccc(F)cc1)C(=O)c1ccc(-c2cc(C3=C(N4CC4)C(=O)C=C(N4CC4)C3=O)no2)s1`: the 50% inhibitory concentration (IC50) in assay [1] came out at 500 nM; in assay [14], 15300 nM. The MIC in assay [2] was more than 125 µg/mL; in assay [3], more than 125 µg/mL; in assay [5], 15.6 µg/mL (≈ 30.9 µM); in assay [7], 31.2 µg/mL (≈ 61.8 µM); in [8], 62.5 µg/mL (≈ 124 µM); in assay [12], more than 125 µg/mL. The figures for the minimum inhibitory concentration (MIC) in assay [13] and in assay [16] were 31.2 µg/mL (≈ 61.8 µM) and more than 125 µg/mL, respectively. Further, the MBC was more than 125 µg/mL in [4]; more than 125 µg/mL in assay [6]; more than 125 µg/mL in assay [9]; 62.5 µg/mL (≈ 124 µM) in assay [10]; more than 125 µg/mL in assay [11]. Also, the “Ratio IC50” value in [15] is recorded as 30.
Consider `CO[C@@]12[C@H](COC(N)=O)C3=C(C(=O)C(C)=C(N)C3=O)N1C[C@@H]1N[C@@H]12` [MITOMYCIN], for which the IC50 amounted to 1100 nM in [17]; 900 nM in [18]; 500 nM in [19]; 500 nM in assay [20]; 1100 nM in [21]; 900 nM in [22]. The IC50 in [23] worked out at 300 nM. Moreover, the MIC in [2] was 1.9 µg/mL (≈ 5.68 µM); in assay [3] it was 1.9 µg/mL (≈ 5.68 µM); in assay [5], 0.45 µg/mL (≈ 1.35 µM); in [7], 1.9 µg/mL (≈ 5.68 µM); in assay [8], 1.9 µg/mL (≈ 5.68 µM); in assay [12], more than 500 µg/mL. Moreover, the MIC in assay [13] turned out to be 0.9 µg/mL (≈ 2.69 µM); in assay [16], 3.9 µg/mL (≈ 11.7 µM). The MBC came to 3.9 µg/mL (≈ 11.7 µM) in assay [4]; 1.9 µg/mL (≈ 5.68 µM) in [6]; 3.9 µg/mL (≈ 11.7 µM) in assay [9]; 0.9 µg/mL (≈ 2.69 µM) in assay [10]; 1.9 µg/mL (≈ 5.68 µM) in assay [11].
